# System: KCHSC: kochia (Kochia scoparia)
# Assay: Post-emergent Test III, herbicidal activity in wheat and barley
# Assay type: in vivo
# Settings: Bassia scoparia, post-emergence, 504 h; Table 8; 35 g ai/ha; post-emergent; 21 d; read-out: Visual Growth Reduction (%) 21 Days After Application KCHSC
# Method: (§1) Post-emergent Test III. Seeds of the desired test plant species were planted in Sun Gro MetroMix® 306 planting mixture, which typically has a pH of 6.0 to 6.8 and an organic matter content of about 30 percent, in plastic pots with a surface area of 103.2 square centimeters (cm^2). When required to ensure good germination and healthy plants, a fungicide treatment and/or other chemical or physical treatment was applied. The plants were grown for 7-36 days (d) in a greenhouse with an approximate 14 hour (h) photoperiod which was maintained at about 18° C. during the day and 17° C. during the night. Nutrients and water were added on a regular basis and supplemental lighting was provided with overhead metal halide 1000-Watt lamps as necessary. The plants were employed for testing when they reached the second or third true leaf stage.
# (§2) A weighed amount, determined by the highest rate to be tested, of each test compound was placed in a 25 mL glass vial and was dissolved in 4 mL of a 97:3 v/v mixture of acetone and DMSO to obtain concentrated stock solutions. […] The concentrated stock solutions obtained were diluted with 20 mL of an aqueous mixture containing acetone, water, isopropyl alcohol, DMSO, Agri-Dex crop oil concentrate, and X-77 surfactant in a 48:39:10:1.5:1.5:0.02 v/v ratio to obtain spray solutions containing the highest application rates. Additional application rates were obtained by serial dilution of 12 mL of the high rate solution into a solution containing 2 mL of 97:3 v/v mixture of acetone and DMSO and 10 mL of an aqueous mixture containing acetone, water, isopropyl alcohol, DMSO, Agri-Dex crop oil concentrate, and X-77 surfactant in a 48:39:10:1.5:1.5:0.02 v/v ratio to obtain ½×, ¼×, ⅛× and 1/16× rates of the high rate. Compound requirements are based upon a 12 mL application volume at a rate of 187 liters per hectare (L/ha). Formulated compounds were applied to the plant material with an overhead Mandel track sprayer equipped with 8002E nozzles calibrated to deliver 187 L/ha over an application area of 0.503 square meters at a spray height of 18 inches (43 cm) above the average plant canopy height. Control plants were sprayed in the same manner with the solvent blank.
# (§3) The treated plants and control plants were placed in a greenhouse as described above and watered by subirrigation to prevent wash-off of the test compounds. After 21 d, the condition of the test plants as compared with that of the untreated plants was determined visually and scored on a scale of 0 to 100 percent where 0 corresponds to no injury and 100 corresponds to complete kill.
# (§4) By applying the well-accepted probit analysis as described by J. Berkson in Journal of the American Statistical Society, 48, 565 (1953) and by D. Finney in “Probit Analysis” Cambridge University Press (1952), herbicidal injury of a specific compound at various rates can be used to calculate GR20, GR50, GR80 and GR90 values, which are defined as growth reduction factors that correspond to the effective dose of herbicide required to provide plant growth reduction (GR) of 20 percent, 50 percent, 80 percent and 90 percent, respectively. Probit analysis was applied to data collected from multiple dose rates of individual compounds utilizing the procedures explained in the following examples. The analysis of those dose rates is captured in the following tables.
row,Structure (SMILES),pest or weed control at 35 g/ha [%]
1,Nc1cc(-c2cc(F)c(Br)cc2F)nc(C(=O)O)c1Cl [Compound 3],95 to 100
2,"COC(=O)c1nc(-c2ccc(I)c(F)c2)nc(N)c1OC [Compound 27, Methyl 6-amino-2-(3-fluoro-4-iodophenyl)-5-methoxypyrimidine-4-carboxylate]",75 to 84

# Same assay, conditions: Bassia scoparia, post-emergence, 504 h; Table 8; 70 g ai/ha; post-emergent; 21 d; read-out: Visual Growth Reduction (%) 21 Days After Application KCHSC
row,Structure (SMILES),pest or weed control at 70 g/ha [%]
1,Nc1cc(-c2cc(F)c(Br)cc2F)nc(C(=O)O)c1Cl [Compound 3],95 to 100
2,"COC(=O)c1nc(-c2ccc(I)c(F)c2)nc(N)c1OC [Compound 27, Methyl 6-amino-2-(3-fluoro-4-iodophenyl)-5-methoxypyrimidine-4-carboxylate]",75 to 84

# Same assay, conditions: Table 8; dose for 50 percent growth reduction, probit analysis; 21 d
row,Structure (SMILES),GR50 KCHSC [g ai/ha]
1,Nc1cc(-c2cc(F)c(Br)cc2F)nc(C(=O)O)c1Cl [Compound 3],2
2,"COC(=O)c1nc(-c2ccc(I)c(F)c2)nc(N)c1OC [Compound 27, Methyl 6-amino-2-(3-fluoro-4-iodophenyl)-5-methoxypyrimidine-4-carboxylate]",18

# Same assay, conditions: Table 8; dose for 80 percent growth reduction, probit analysis; 21 d
row,Structure (SMILES),GR80 KCHSC [g ai/ha]
1,Nc1cc(-c2cc(F)c(Br)cc2F)nc(C(=O)O)c1Cl [Compound 3],8
2,"COC(=O)c1nc(-c2ccc(I)c(F)c2)nc(N)c1OC [Compound 27, Methyl 6-amino-2-(3-fluoro-4-iodophenyl)-5-methoxypyrimidine-4-carboxylate]",61

# System: HORSS: barley, including spring and winter (Hordeum vulgare)
# Assay: as above
# Assay type: in vivo
# Settings: Hordeum vulgare, post-emergence, 504 h; Table 8; 35 g ai/ha; post-emergent; 21 d; read-out: Visual Growth Reduction (%) 21 Days After Application HORSS
# Method: as §1, §2, §3, §4
row,Structure (SMILES),pest or weed control at 35 g/ha [%]
1,Nc1cc(-c2cc(F)c(Br)cc2F)nc(C(=O)O)c1Cl [Compound 3],85 to 94
2,"COC(=O)c1nc(-c2ccc(I)c(F)c2)nc(N)c1OC [Compound 27, Methyl 6-amino-2-(3-fluoro-4-iodophenyl)-5-methoxypyrimidine-4-carboxylate]",30 to 44

# Same assay, conditions: Hordeum vulgare, post-emergence, 504 h; Table 8; 70 g ai/ha; post-emergent; 21 d; read-out: Visual Growth Reduction (%) 21 Days After Application HORSS
row,Structure (SMILES),pest or weed control at 70 g/ha [%]
1,Nc1cc(-c2cc(F)c(Br)cc2F)nc(C(=O)O)c1Cl [Compound 3],95 to 100
2,"COC(=O)c1nc(-c2ccc(I)c(F)c2)nc(N)c1OC [Compound 27, Methyl 6-amino-2-(3-fluoro-4-iodophenyl)-5-methoxypyrimidine-4-carboxylate]",45 to 59

# Same assay, conditions: Table 8; dose for 20 percent growth reduction, probit analysis; 21 d
row,Structure (SMILES),GR20 HORSS [g ai/ha]
1,Nc1cc(-c2cc(F)c(Br)cc2F)nc(C(=O)O)c1Cl [Compound 3],1
2,"COC(=O)c1nc(-c2ccc(I)c(F)c2)nc(N)c1OC [Compound 27, Methyl 6-amino-2-(3-fluoro-4-iodophenyl)-5-methoxypyrimidine-4-carboxylate]",11

# System: TRZSS: wheat, including spring and winter (Triticum aestivum)
# Assay: as above
# Assay type: in vivo
# Settings: Table 8; dose for 20 percent growth reduction, probit analysis; 21 d
# Method: as §1, §2, §3, §4
row,Structure (SMILES),GR20 TRZSS [g ai/ha]
1,Nc1cc(-c2cc(F)c(Br)cc2F)nc(C(=O)O)c1Cl [Compound 3],1
2,"COC(=O)c1nc(-c2ccc(I)c(F)c2)nc(N)c1OC [Compound 27, Methyl 6-amino-2-(3-fluoro-4-iodophenyl)-5-methoxypyrimidine-4-carboxylate]",11

# Same assay, conditions: Triticum aestivum, post-emergence, 504 h; Table 8; 35 g ai/ha; post-emergent; 21 d; read-out: Visual Growth Reduction (%) 21 Days After Application TRZSS
row,Structure (SMILES),pest or weed control at 35 g/ha [%]
1,Nc1cc(-c2cc(F)c(Br)cc2F)nc(C(=O)O)c1Cl [Compound 3],85 to 94
2,"COC(=O)c1nc(-c2ccc(I)c(F)c2)nc(N)c1OC [Compound 27, Methyl 6-amino-2-(3-fluoro-4-iodophenyl)-5-methoxypyrimidine-4-carboxylate]",60 to 74

# Same assay, conditions: Triticum aestivum, post-emergence, 504 h; Table 8; 70 g ai/ha; post-emergent; 21 d; read-out: Visual Growth Reduction (%) 21 Days After Application TRZSS
row,Structure (SMILES),pest or weed control at 70 g/ha [%]
1,Nc1cc(-c2cc(F)c(Br)cc2F)nc(C(=O)O)c1Cl [Compound 3],85 to 94
2,"COC(=O)c1nc(-c2ccc(I)c(F)c2)nc(N)c1OC [Compound 27, Methyl 6-amino-2-(3-fluoro-4-iodophenyl)-5-methoxypyrimidine-4-carboxylate]",75 to 84

# System: MATSS: scented mayweed (Matricaria chamomilla), pineappleweed (Matricaria matricarioides)
# Assay: as above
# Assay type: in vivo
# Settings: Matricaria chamomilla, post-emergence, 504 h; Table 8; 35 g ai/ha; post-emergent; 21 d; read-out: Visual Growth Reduction (%) 21 Days After Application MATSS
# Method: as §1, §2, §3, §4
row,Structure (SMILES),pest or weed control at 35 g/ha [%]
1,Nc1cc(-c2cc(F)c(Br)cc2F)nc(C(=O)O)c1Cl [Compound 3],95 to 100
2,"COC(=O)c1nc(-c2ccc(I)c(F)c2)nc(N)c1OC [Compound 27, Methyl 6-amino-2-(3-fluoro-4-iodophenyl)-5-methoxypyrimidine-4-carboxylate]",30 to 44

# Same assay, conditions: Matricaria chamomilla, post-emergence, 504 h; Table 8; 70 g ai/ha; post-emergent; 21 d; read-out: Visual Growth Reduction (%) 21 Days After Application MATSS
row,Structure (SMILES),pest or weed control at 70 g/ha [%]
1,Nc1cc(-c2cc(F)c(Br)cc2F)nc(C(=O)O)c1Cl [Compound 3],95 to 100
2,"COC(=O)c1nc(-c2ccc(I)c(F)c2)nc(N)c1OC [Compound 27, Methyl 6-amino-2-(3-fluoro-4-iodophenyl)-5-methoxypyrimidine-4-carboxylate]",30 to 44

# Same assay, conditions: Table 8; dose for 50 percent growth reduction, probit analysis; 21 d
row,Structure (SMILES),GR50 MATSS [g ai/ha]
1,Nc1cc(-c2cc(F)c(Br)cc2F)nc(C(=O)O)c1Cl [Compound 3],4
2,"COC(=O)c1nc(-c2ccc(I)c(F)c2)nc(N)c1OC [Compound 27, Methyl 6-amino-2-(3-fluoro-4-iodophenyl)-5-methoxypyrimidine-4-carboxylate]",109

# Same assay, conditions: Table 8; dose for 80 percent growth reduction, probit analysis; 21 d
row,Structure (SMILES),GR80 MATSS [g ai/ha]
1,Nc1cc(-c2cc(F)c(Br)cc2F)nc(C(=O)O)c1Cl [Compound 3],11
2,"COC(=O)c1nc(-c2ccc(I)c(F)c2)nc(N)c1OC [Compound 27, Methyl 6-amino-2-(3-fluoro-4-iodophenyl)-5-methoxypyrimidine-4-carboxylate]",>140

# Source: patent publication US9113629B2, “4-amino-6-(4-substituted-phenyl)-picolinates and 6-amino-2-(4-substituted-phenyl)-pyrimidine-4-carboxylates and their use as herbicides” (DOW AGROSCIENCES LLC, priority 2013, dated 2015)
